According to patent publication US8877801B2, “Compounds and compositions as selective estrogen receptor degraders” (Novartis AG, priority 2013, dated 2014):
Like-named read-outs stand apart in the source and are kept apart here.

Columns and labels:
ER = target: T1, ER (Homo sapiens, UniProt P03372); test: ER transcription assay (MCF7 cells), ERE-luciferase reporter; assay type: cell-based
T1 construct: transfected in MCF7 cells (containing endogenous ER); endogenous in cells; host or cells: MCF7 cells
T1 sequence (P03372 1-595): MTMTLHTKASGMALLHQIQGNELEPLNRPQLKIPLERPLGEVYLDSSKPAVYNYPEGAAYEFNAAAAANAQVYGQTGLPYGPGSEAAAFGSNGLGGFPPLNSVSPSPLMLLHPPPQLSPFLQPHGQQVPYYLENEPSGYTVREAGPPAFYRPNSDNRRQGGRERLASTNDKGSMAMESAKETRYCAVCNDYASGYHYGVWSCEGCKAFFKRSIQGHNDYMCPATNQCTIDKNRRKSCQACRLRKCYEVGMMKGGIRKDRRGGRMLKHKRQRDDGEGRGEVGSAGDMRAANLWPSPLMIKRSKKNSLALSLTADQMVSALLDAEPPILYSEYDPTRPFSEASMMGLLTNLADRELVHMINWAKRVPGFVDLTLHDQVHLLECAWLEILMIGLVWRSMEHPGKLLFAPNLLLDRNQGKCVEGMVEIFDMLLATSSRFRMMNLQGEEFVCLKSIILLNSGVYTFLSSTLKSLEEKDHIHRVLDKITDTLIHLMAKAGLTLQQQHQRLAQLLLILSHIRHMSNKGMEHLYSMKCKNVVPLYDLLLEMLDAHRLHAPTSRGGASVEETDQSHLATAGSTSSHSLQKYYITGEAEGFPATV
Text: ER Transcription Assay (MCF7 Cells)
The ER transcription assay is a reporter assay that is based on the ability of ER to induce transcription from a luciferase reporter gene containing estrogen response elements (EREs) in the promoter/enhancer region. When the reporter gene is transfected in MCF7 cells (containing endogenous ER), transcription is reflected by the level of luciferase expression.
A day before transfection, cells are split into a T75 flask at a cell density of 300,000 cells/mL (10 mL total) and allowed to attach overnight in a humidified CO2 incubator at 37° C.
Approximately 20 ug DNA is mixed in OptiMEM (Invitrogen) to a total volume of 650 μL. Following incubation, the OptiMEM-DNA mixture is added to the OptiMEM-Lipofectin mix and incubated for 15 minutes at 37° C. The DNA-Lipofectin mixture is then added directly to the T75 flask and the flask is returned to the incubator.
After overnight incubation, compound is added to individual wells of a 96-well plate in a 10 μL volume of media at 10× concentration along with 17β estradiol whose final concentration is 0.1 nM. Normally, DMSO (used as a vehicle) is included to achieve a final concentration of 0.1% when added to the cells. Transfected cells are trypsinized, resuspended in DMEM/F12/10% charcoal-stripped serum and added to the 96-well plate at 25,000 cells/well in 90 μL of media. The plate is then returned to the incubator for 24 hours.
After incubation with compounds for 24 hours, Firefly and Renilla luciferase activities are measured to determine ER transcriptional activity. Media is removed from 96-well plates by decanting and blotting on paper towels.
One second total read time after a one second delay.
One second total read time after one second delay. If Firefly luciferase signal is high, Renilla assay must be done an hour after the Firefly assay due to incomplete squelching of Firefly signal.
(§1) The data describing the antagonist and degradation properties for the examples is compiled in table 10. The column titled MCF7 IC50 reports the inflection point of the inhibition of transcription in MCF7 cells as described above. Percentage ERα remaining reports the remaining ERα protein measured at 10 μM concentration of the ligand as described above. The column ERα IC50 reports the inflection point of the degradation in response to the ligand concentration.

ERα = target: T2, ERα (Homo sapiens, UniProt P03372); test: ERα degradation (MCF7 cells), in-cell Western; assay type: cell-based; details: for % ERα remaining: 10 μM concentration of the ligand, MCF7 cells, 18-24 hours, relative to DMSO control
T2 construct: transfected in MCF7 cells (containing endogenous ER); endogenous in cells; host or cells: MCF7 cells
T2 sequence (P03372 1-595): T1 sequence (P03372 1-595)
Method: ERα Degradation (MCF7 Cells)
as §1

[1] = MCF7 cells, ER reporter gene, 0.1 nM 17β estradiol, 24 hours, read-out: MCF7 IC50 (inflection point of the inhibition of transcription in MCF7 cells)
[2] = comparison of groups at the X position, read-out: IC50 MCF7 μM (antagonist activity)
[3] = comparison of groups at the X position
[4] = comparison of bond order between the phenyl and -C(O)OH, read-out: SERD IC50 MCF7 μM (antagonist activity)
[5] = comparison of bond order between the phenyl and -C(O)OH

Row | SMILES | IC50 (ER; [1]) | % ERα remaining (ERα) | other results
1 | CCCn1cnc(/C=C/c2ccc(Oc3c(-c4ccc(O)cc4)sc4cc(O)ccc34)cc2)c1 [Example 74, (E)-2-(4-hydroxyphenyl)-3-(4-(2-(1-propyl-1H-imidazol-4-yl)vinyl)phenoxy)benzo [b]thiophen-6-ol] | 108 nM | 41% | 
2 | Oc1ccc(-c2sc3cc(O)ccc3c2Oc2ccc(/C=C/c3c[nH]cn3)cc2)cc1 [Example 72, (E)-3-(4-(2-(1H-imidazol-4-yl)vinyl)phenoxy)-2-(4-hydroxyphenyl)benzo[b]thiophen-6-ol] | 125 nM | 47% | 
3 | O=C(O)/C=C/c1ccc(C(=O)c2c(-c3ccc(O)cc3)sc3cc(O)ccc23)cc1 [reference compound] |  |  | IC50 (ER; [2]): > 10000 nM; ER Percentage remaining (degradation potential) (ERα; [3]): 60%
4 | CNC(=O)/C=C/c1ccc(Oc2c(-c3ccc(C(F)(F)F)cc3)sc3cc(O)ccc23)cc1 [Example 70, (E)-3-(4-((6-hydroxy-2-(4-(trifluoromethyl)phenyl)benzo[b]thiophen-3-yl)oxy)phenyl)-N-methylacrylamide] | 269 nM | 41% | 
5 | O=C(O)CCCc1ccc(Oc2c(-c3ccc(O)cc3)sc3cc(O)ccc23)cc1 [reference compound] |  |  | IC50 (ER; [4]): ≥ 10000 nM; ER Percentage remaining (degradation potential) (ERα; [5]): 55%
6 | COc1cc(Oc2c(-c3ccc(O)cc3)sc3cc(O)ccc23)ccc1/C=C/C(=O)O [Example 58, (E)-3-(4-((6-hydroxy-2-(4-hydroxyphenyl)-benzo[b]thiophen-3-yl)oxy)-2-methoxyphenyl)acrylic acid] | 5020 nM | 35% | 
7 | CCCn1cncc1/C=C/c1ccc(Oc2c(-c3ccc(O)cc3)sc3cc(O)ccc23)cc1 [Example 75, (E)-2-(4-hydroxyphenyl)-3-(4-(2-(1-propyl-1H-imidazol-5-yl)vinyl)phenoxy)benzo[b] thiophen-6-ol] | 10 nM | 42% | 
8 | Cc1cc(F)ccc1-c1sc2cc(O)ccc2c1Oc1ccc(/C=C/c2nnc(C3CC3)o2)cc1 [Example 76, (E)-3-(4-(2-(5-cyclopropyl-1,3,4-oxadiazol-2-yl)vinyl)phenoxy)-2-(4-fluoro-2-methylphenyl)benzo[b]-thiophen-6-ol] | 16 nM | 36% | 
9 | CNC(=O)/C=C/c1ccc(Oc2c(-c3ccc(O)c(F)c3)sc3cc(O)ccc23)cc1 [Example 69, (E)-3-(4-((2-(3-fluoro-4-hydroxyphenyl)-6-hydroxybenzo[b]thiophen-3-yl)oxy)phenyl)-N-methylacrylamide] | 41 nM | 32% | 
10 | O=C(O)/C=C/c1ccc(-c2c(-c3ccc(O)cc3)sc3cc(O)ccc23)cc1 [reference compound] |  |  | IC50 (ER; [2]): > 10000 nM; ER Percentage remaining (degradation potential) (ERα; [3]): 76%
11 | CNC(=O)/C=C/c1ccc(Oc2c(-c3ccc(O)cc3)sc3cc(O)ccc23)cn1 [Example 71, (E)-3-(5-((6-hydroxy-2-(4-hydroxyphenyl)benzo[b]thiophen-3-yl)oxy)pyridin-2-yl)-N-methylacrylamide] | 53 nM | 39% | 
12 | Cn1cnc(/C=C/c2ccc(Oc3c(-c4ccc(O)cc4)sc4cc(O)ccc34)cc2)c1 [Example 73, (E)-2-(4-hydroxyphenyl)-3-(4-(2-(1-methyl-1H-imidazol-4-yl)vinyl)phenoxy)-benzo[b]thiophen-6-ol] | 58 nM | 32% | 
13 | O=C(O)/C=C/c1ccc(Oc2c(-c3ccc(O)cc3)sc3cc(O)ccc23)cc1 [Example 2, (E)-3-(4-((6-hydroxy-2-(4-hydroxyphenyl)benzo[b]thiophen-3-yl)oxy)phenyl)acrylic acid] | 748 nM |  | IC50 (ER; [4]): 748 nM; IC50 (ER; [2]): 748 nM; ER Percentage remaining (degradation potential) (ERα; [5]): 41%; ER Percentage remaining (degradation potential) (ERα; [3]): 41%
14 | O=C(O)c1ccc(Oc2c(-c3ccc(O)cc3)sc3cc(O)ccc23)cc1 [reference compound] |  |  | IC50 (ER; [4]): ≥ 10000 nM; ER Percentage remaining (degradation potential) (ERα; [5]): 57%
15 | CCCn1nnnc1/C=C/c1ccc(Oc2c(-c3ccc(F)cc3C)sc3cc(O)ccc23)cc1 [Example 53, (E)-2-(4-fluoro-2-methylphenyl)-3-(4-(2-(1-propyl-1H-tetrazol-5-yl)vinyl)phenoxy) benzo[b]thiophen-6-ol] | 320 nM |  | 
16 | COC(=O)/C=C/c1ccc(Oc2c(-c3ccc(F)cc3)sc3cc(O)ccc23)cc1 [Example 36, (E)-methyl 3-(4-((2-(4-fluorophenyl)-6-hydroxybenzo[b]thiophen-3-yl)oxy)phenyl)-acrylate] | 137 nM |  | 
